Experiments:
Format in all cases: in vivo, BALB/c mice
[1] = test system: platelet factor-4 (PF-4); assay: Thrombus formation by PF-4 real-time PCR, FeCl3 induced venous thrombosis model vs warfarin (Example 11); settings: for PF-4 in vena cava, percentage as compared to PBS controls (thrombus formation): + FeCl3
Protocol: Two control groups of BALB/c mice were treated with PBS, administered subcutaneously twice a week for 3 weeks. Two days after the last dose of PBS, mice in both groups were anesthetized with 150 mg/kg ketamine mixed with 10 mg/kg xylazine administered by intraperitoneal injection. Thrombus formation was induced with FeCl3 in all groups of mice except the first control group.
(§1) In mice undergoing FeCl3 treatment, thrombus formation was induced by applying a piece of filter paper (2×4 mm) pre-saturated with 10% FeCl3 solution directly on the vena cava. After 3 minutes of exposure, the filter paper was removed. Thirty minutes after the filter paper application, a fixed length of the vein containing the thrombus was dissected out for platelet analysis. Liver was collected for RNA analysis.
Real-time PCR quantification of platelet factor-4 (PF-4) was used to quantify platelets in the vena cava as a measure of thrombus formation.

[2] = test system: platelet factor-4 (PF-4); assay: Thrombus formation by PF-4, FeCl3 induced VT model, combination with PLAVIX (Example 26); settings: ISIS 404071 20 mg/kg, PLAVIX 0 mg/kg
Protocol: The combination of ISIS 404071 and PLAVIX was evaluated in the FeCl3 induced VT mouse model. Four groups of eight BALB/c mice, weighing approximately 25 g each, were treated with 6.25 mg/kg, 12.50 mg/kg, 25.00 mg/kg, or 50.00 mg/kg of PLAVIX. Mice were given two doses of PLAVIX on day one and one dose of PLAVIX on day two, two hours before surgery.
After the last dose of ISIS 404071, mice were treated with 6.25 mg/kg, 12.50 mg/kg, 25.00 mg/kg, or 50.00 mg/kg of PLAVIX. Two doses of PLAVIX were administered to the mice on day one and one dose of PLAVIX was administered on day two, two hours before surgery.
Two control groups of eight BALB/c mice, weighing approximately 25 g each, were not treated with ISIS 404071 or PLAVIX. […] Thrombus formation was induced with FeCl3 in all of the mice except the first […] control groups. All mice were anesthetized with 150 mg/kg of ketamine mixed with 10 mg/kg of xylazine administered by intraperitoneal injection.
After 3 minutes of exposure, the filter paper was removed. Thirty minutes after the filter paper application, a fixed length of the vein containing the thrombus was dissected out for platelet analysis.
Real-time PCR quantification of PF-4 was used to quantify platelets in the vena cava as a measure of thrombus formation. […] Therefore, the combination of anti-platelet therapy with Factor 11 ASO increases antithrombotic activity. Data is presented as percent of PF-4 mRNA as compared to the PBS+ FeCl3 control.

[3] = test system: Factor 11 mRNA; assay: Factor 11 mRNA in liver, FeCl3 induced venous thrombosis model vs Apixaban (Example 14); settings: for % inhibition of Factor 11 mRNA in liver relative to PBS control: FeCl3 VT model
Protocol: ISIS 404071 and Apixaban were evaluated in the FeCl3 induced VT mouse model. […] Two days after receiving the last dose of ISIS 404071, mice were anesthetized with 150 mg/kg ketamine mixed with 10 mg/kg xylazine administered by intraperitoneal injection. […] Twenty minutes after receiving Apixaban, mice were anesthetized with 150 mg/kg ketamine mixed with 10 mg/kg xylazine administered by intraperitoneal injection. […] Two days after the last dose of PBS, mice in both groups were anesthetized with 150 mg/kg ketamine mixed with 10 mg/kg xylazine administered by intraperitoneal injection. Thrombus formation was induced with FeCl3 in all of the mice except the first control group.
as §1
RNA was extracted from liver tissue for real-time PCR analysis of Factor 11. Results are presented as percent inhibition of Factor 11, relative to PBS control.

[4] = test system: blood coagulation; assay: PT and aPTT, combination with Apixaban (Example 20)
Protocol: PT and aPTT were measured using PPP from mice treated with ISIS 404071 in combination with Apixaban. In the first cohort, ISIS 404071 was administered subcutaneously to BALB/c mice at a dosage of 25 mg/kg twice a week for 3 weeks. Plasma was collected from these mice 5 days after receiving the last dose of ISIS 404071. In the second cohort, Apixaban was administered subcutaneously to BALB/c mice at a dosage of 6 mg/kg twice daily for three days. Plasma was collected from these mice 20 minutes after receiving the last dose of Apixaban. In the third cohort, ISIS 404071 was administered subcutaneously to BALB/c mice at a dosage of 20 mg/kg twice a week for 3 weeks, and Apixaban was administered subcutaneously at a dosage of 6 mg/kg twice daily on the last three days of ISIS 404071 treatment. Plasma was collected from these mice 20 minutes after receiving the last dose of Apixaban. In a fourth cohort, PBS was administered subcutaneously twice a week for three weeks, as a control. Plasma was collected 5 days after the last dose of PBS.
PT and aPTT values provided in Table 32 are reported as International Normalized Ratio (INR) values. […] However, Apixaban and Apixaban combined with ISIS 404071 increased PT. Also shown in Table 32, Apixaban, ISIS 404071, and ISIS 404071 combined with Apixaban increase aPTT.

[5] = test system: blood coagulation; assay: PT and aPTT, combination with warfarin (Example 21)
Protocol: Plasma was collected from each group 5 days after the last dose was administered. […] In a final group of BALB/c mice, PBS was administered subcutaneously twice a week for three weeks, as a control. Plasma was collected 5 days after the last PBS treatment.
PT and aPTT values provided in Table 33 are reported as International Normalized Ratio (INR) values.

[6] = ISIS 404071 1.25 mg/kg subcutaneously twice a week for 3 weeks
[7] = ISIS 404071 5 mg/kg subcutaneously twice a week for 3 weeks
[8] = ISIS 404071 10 mg/kg subcutaneously twice a week for 3 weeks
[9] = BALB/c mice, ISIS 404071 25 or 20 mg/kg, Apixaban 6 mg/kg twice daily
[10] = ISIS 404071 alone 25 mg/kg s.c. twice a week for 3 weeks, Apixaban alone 6 mg/kg s.c. twice daily for three days, combination 20 mg/kg + 6 mg/kg
[11] = BALB/c mice, ISIS 404071 25 or 50 mg/kg, warfarin 2 mg/kg
[12] = ISIS 404071 25 mg/kg s.c. twice a week for 3 weeks
[13] = ISIS 404071 50 mg/kg s.c. twice a week for 3 weeks

ISIS 404071: antisense oligonucleotide targeted to murine Factor 11 mRNA, TGGTAATCCACTTTCAGAGG, target start site 869 (chemistry not given here)
PF-4 in vena cava as measure of thrombus formation ([1]; FeCl3 induced VT model, vs PBS control): dose-dependent reduction of PF-4 in comparison to the PBS control for dosages of 5 mg/kg and higher
PF-4 in vena cava, percentage as compared to PBS controls (thrombus formation) [1, 6]: 143%
PF-4 in vena cava, percentage as compared to PBS controls (thrombus formation) [1, 7]: 95%
PF-4 in vena cava, percentage as compared to PBS controls (thrombus formation) [1, 8]: 21%
PF-4 in vena cava, percentage as compared to PBS controls (thrombus formation) ([1]; ISIS 404071 20 mg/kg subcutaneously twice a week for 3 weeks): 37%
PF-4 in vena cava, percentage as compared to PBS controls (thrombus formation) ([1]; ISIS 404071 40 mg/kg subcutaneously twice a week for 3 weeks): 20%
PF-4 mRNA, percent as compared to the PBS + FeCl3 control (thrombus formation) ([2]; + FeCl3): 40%
PF-4 mRNA, percent as compared to the PBS + FeCl3 control (thrombus formation) ([2]; − FeCl3): 27%
Factor 11 mRNA in liver vs PBS control ([3]; FeCl3 induced VT model, ISIS 404071 1.25-40 mg/kg, Apixaban 0.5-5 mg/kg s.c. once): significant dose-dependent reduction of Factor 11 mRNA
% inhibition of Factor 11 mRNA in liver relative to PBS control [3, 6]: 15%
% inhibition of Factor 11 mRNA in liver relative to PBS control [3, 7]: 63%
% inhibition of Factor 11 mRNA in liver relative to PBS control [3, 8]: 76%
% inhibition of Factor 11 mRNA in liver relative to PBS control ([3]; ISIS 404071 25 mg/kg subcutaneously twice a week for 3 weeks): 91%
% inhibition of Factor 11 mRNA in liver relative to PBS control ([3]; ISIS 404071 50 mg/kg subcutaneously twice a week for 3 weeks): 95%
PT [4, 9]: not significantly affected
aPTT [4, 9]: increase aPTT
PT INR [4, 10]: 0.95 INR
aPTT INR [4, 10]: 1.31 INR
PT [5, 11]: not affected
aPTT [5, 11]: affected
PT INR [5, 12]: 0.98 INR
aPTT INR [5, 12]: 1.37 INR
PT INR [5, 13]: 0.93 INR
aPTT INR [5, 13]: 1.49 INR
